In patent US11767313B2, “Compounds as nuclear transport modulators and uses thereof” (XWPHARMA LTD., priority 2018, dated 2023):
pEC50, pIC50: −log10 of the molar value. Read-outs that look alike come from different tables or passages of the source.

Legend:
[1] = Pharmacokinetic profile summary; format: in vivo, mice or rats; details: for bioavailability / Kp at 1 h: oral; for bioavailability / half-life: mice or rats; for AUC / Cmax: po; for Kp at 1 h: brain/plasma, read-out: B/P ratio (Cmax time) 10 mpk
Procedure: Blood was collected from mice (n=3, or 5) to contribute to the total of 10 time points (pre-dose, 5 min, 15 min, 30 min, 1 hour, 2 hours, 4 hours, 8 hours, 12 hours and 24 hours). At the designated time points, animals were anaesthetized under isoflurane, and approximately 110 μL of blood per time point was collected via retro-orbital puncture into pre-cooled K2EDTA tubes. Blood samples were put on wet ice and centrifuged (2000 g, 5 min at 4° C.) to obtain plasma within 30 minutes of sample collection. All samples were stored frozen at approximately −80° C. until analysis. Prior to analysis, samples were mixed with internal standard in acetonitrile, vortexed, centrifuged, and supernatant was injected for analysis. Concentration of compounds in plasma was determined using LC-MS-MS instrumentation (API 4000, Triple Quadrupole LC/MS/MS Mass Spectrometer). AUC values were calculated using Phoenix Win Nonlin 6.3 software package, PO-Noncompartmental model 200 (extravascular input).
Following collection, brain tissue was rinsed with cold saline, dried on filter paper, weighed and snap-frozen by placing on dry ice. All samples were stored frozen at approximately −80° C. until analysis. At the time of analysis, brain tissue was homogenized (homogenizing solution PBS, pH 7.4), mixed with internal standard in acetonitrile, vortexed, centrifuged, and supernatant was injected for analysis. Concentration of compounds in plasma was determined using LC-MS-MS instrumentation (API 4000, Triple Quadrupole LC/MS/MS Mass Spectrometer). Plasma samples were treated with the identical method (except homogenization step) and the concentration of compound in each matrix was calculated based on generated standard curves.
The pharmacokinetic profile of test compounds in mice or rats was determined from several test compounds was determined using the methods described in Example 22.

CRM1 = biological target: T1, CRM1 (Homo sapiens, UniProt O14980); assay: PD effects by IHC in U87MG-luc orthotopic model, CRM1; format: in vivo, mice; details: orally three times a week for 2 weeks; vs vehicle control
T1 construct: from tissue; host or cells: U87MG-luc orthotopic xenograft tumours in mouse brain
T1 sequence (O14980 whole entry): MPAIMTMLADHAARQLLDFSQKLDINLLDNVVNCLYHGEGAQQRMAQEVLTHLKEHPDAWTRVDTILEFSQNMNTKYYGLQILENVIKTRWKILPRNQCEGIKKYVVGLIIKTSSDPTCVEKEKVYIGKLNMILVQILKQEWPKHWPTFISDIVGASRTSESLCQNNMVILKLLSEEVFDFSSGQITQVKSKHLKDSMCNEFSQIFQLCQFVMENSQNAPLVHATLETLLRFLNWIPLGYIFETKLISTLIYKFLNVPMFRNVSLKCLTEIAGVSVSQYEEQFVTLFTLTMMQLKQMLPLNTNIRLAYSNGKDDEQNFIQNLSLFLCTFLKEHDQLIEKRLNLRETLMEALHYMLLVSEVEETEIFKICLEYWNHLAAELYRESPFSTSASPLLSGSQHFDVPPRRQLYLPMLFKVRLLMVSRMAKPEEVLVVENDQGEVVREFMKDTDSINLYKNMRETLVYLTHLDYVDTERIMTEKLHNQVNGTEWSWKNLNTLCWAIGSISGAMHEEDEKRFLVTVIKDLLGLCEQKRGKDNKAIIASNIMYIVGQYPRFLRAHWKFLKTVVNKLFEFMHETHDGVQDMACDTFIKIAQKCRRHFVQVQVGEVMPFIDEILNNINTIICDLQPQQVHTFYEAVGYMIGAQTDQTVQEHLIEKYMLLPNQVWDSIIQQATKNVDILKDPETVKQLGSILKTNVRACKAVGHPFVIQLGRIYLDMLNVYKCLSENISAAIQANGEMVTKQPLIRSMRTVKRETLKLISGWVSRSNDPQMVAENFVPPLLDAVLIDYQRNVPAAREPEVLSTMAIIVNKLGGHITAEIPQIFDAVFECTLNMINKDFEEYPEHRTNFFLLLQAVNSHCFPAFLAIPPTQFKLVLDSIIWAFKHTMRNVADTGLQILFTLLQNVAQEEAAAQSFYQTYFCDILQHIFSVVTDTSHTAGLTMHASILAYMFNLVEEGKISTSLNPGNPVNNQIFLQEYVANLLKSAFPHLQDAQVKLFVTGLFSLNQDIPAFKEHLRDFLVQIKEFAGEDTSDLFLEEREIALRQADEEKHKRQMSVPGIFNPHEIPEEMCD
Procedure: Based on the bioluminescent signal of tumor, mice were randomly assigned to respective groups using a computer-generated randomization procedure, which included vehicle and compound III-treated groups, respectively, with 5 animals per group. Compound III (20 mg/kg) was given orally 3 times a week (on Day 1, 3, 5) for 2 weeks. Animals for IHC study were euthanized at 6 hours after the last dose and perfused with normal saline followed by fixation with 4% paraformaldehyde. Entire brains containing tumors were collected and kept in fixative for 24 hours before proceeding for paraffin block.

U251 = assay: CellTiter-Glo cell proliferation assay, U251; format: cell-based; details: Homo sapiens, U-251; for IC50: Table 11, read-out: Absolute IC50 (μM) U251
Procedure, shortened: (§1)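 Cells were seeded at 1,500 to 5,000 per well overnight, then exposed for 72 hours to 10 concentrations of compound from 2- or 3-fold serial dilutions. Viability was read as CellTiter-Glo luminescence, and % growth was normalized to DMSO-treated cells and medium-only background. IC50 came from concentration-response fitting.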

HCN2 = assay: CellTiter-Glo cell proliferation assay, HCN2 (normal brain); format: cell-based
Procedure: (§2) CellTiter-Glo® Luminescent Cell Viability assay (with Promega CellTiter 96® Luminescent CellTiter-Glo® kit) was used to study the proliferation inhibition by test compounds. Compounds were resuspended in DMSO to make a 25 mM stock suspension. Cells of cancer cell lines or normal tissues were seeded in 96-well plates at 1,500 to 5,000 cells/well overnight. Compounds were 2- or 3-fold diluted serially to obtain 10 concentrations. Then, the drugs were added to the cell wells by Bravo (Agilent) and incubated for 72 hours. The cells were lysed by adding CellTiter-Glo® Reagent (per manufacturer's instructions) and subsequently, the luminescence was read using EnVision® (PerkinElmer).
(§3) The percent of growth was calculated as follows. DMSO-treated cells were employed as vehicle control (High control, HC) and culture medium alone was employed as background (Low control, EC). % growth=100×(Lum sample−Lum EC)/(Lum HC−Lum EC). The ICso was calculated by concentration-response curve fitting using Graphpad Prism.
(§4) Hematological cancer cell lines tested included OCI-AML3, MV-4-11, KG-1, Kasumi-1, K562, THP-1; solid cancer cell lines tested included U87MG, U251, T98G, LN229, A172, H460, H2009, A549; normal cell lines tested included HCN2 and 3T3-L1. […] However, they were not toxic to in vitro cultured normal cells.

T98G = assay: CellTiter-Glo cell proliferation assay, T98G; format: cell-based; details: Homo sapiens, T98G; for IC50: Table 11, read-out: Absolute IC50 (μM) T98G
Procedure, shortened: as §1

LN-229 = assay: CellTiter-Glo cell proliferation assay, LN-229; format: cell-based; details: Homo sapiens, LN-229; for IC50: Table 11, read-out: Absolute IC50 (μM) LN-229
Procedure, shortened: as §1

XPO1 = XPO1 (Homo sapiens, UniProt O14980); assay: REV-GFP translocation assay in U2OS cells; format: cell-based; design: endogenous in cells; host or cells: U2OS cells stably expressing REV-GFP (clones from HD Biosciences); details: for pIC50: Table 10; for EC50: Table 13, read-out: Rev-GFP assay/μM
Chain of XPO1 (O14980 whole entry): as above
Procedure, shortened: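 High-content imaging (Hoechst and GFP channels, 20× objective) quantified REV-GFP nuclear translocation in U2OS cells after 1 h compound exposure at 37° C, maximum 10 μM. Cells were formaldehyde-fixed before staining. Results expressed as % effect scaled between vehicle control and 50 nM LMB.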

U87MG = assay: CellTiter-Glo cell proliferation assay, U87MG; format: cell-based, human; details: for pIC50: Homo sapiens, U-87 MG
Procedure, shortened: as §1

3T3-L1 = assay: CellTiter-Glo cell proliferation assay, 3T3-L1 (normal); format: cell-based; details: Mus musculus
Procedure: as §2, §3, §4

[2] = 10 mg/kg, plasma, 10 mpk, read-out: Cmax (ng/ml) plasma/10 mpk
[3] = 72 h, HCN2 normal cell line, 72 hours, Table 1, read-out: Growth inhibition (IC50)
[4] = 72 hours, Table 1, read-out: Growth inhibition (IC50)
[5] = REV-EGFP U2OS cells, 1 h, Table 2, read-out: Rev-GFP/EC50
[6] = first (or only) value of the cell
[7] = 72 h, U87MG, 72 hours, Table 1, read-out: Growth inhibition (IC50)
[8] = Table 9, first value column, read-out: U87MG IC50
[9] = Table 9, second value column, read-out: U87MG IC50

| Structure (SMILES) | bioavailability ([1]; plasma) | AUC ([1]; plasma, 10 mg/kg, 10 mpk) | half-life ([1]; plasma) | Cmax [1, 2] | Kp at 1 h ([1]; rat, 10 mg/kg) | IC50 (U251) | pIC50 (HCN2; [3]) | pIC50 (HCN2; Table 9, read-out: HCN2 IC50) | IC50 (T98G) | IC50 (LN-229) | pEC50 (XPO1; [5]) | pIC50 (XPO1; [6]) | pIC50 (XPO1; second value of the cell) | EC50 (XPO1) | pIC50 (U87MG; [7]) | pIC50 (U87MG; [8]) | pIC50 (U87MG; [9]) | further results |
| --- | --- | --- | --- | --- | --- | --- | --- | --- | --- | --- | --- | --- | --- | --- | --- | --- | --- | --- |
| CC(C)(C)C(=O)NNC(=O)/C=C\n1cnc(-c2cc(C(F)(F)F)cc(S(F)(F)(F)(F)F)c2)n1 [Compound III, (Z)-3-(3-(3-(Pentafluorosulfanyl)-5-(trifluoromethyl)phenyl)-1H-1,2,4-triazol-1-yl)-N′-pivaloylacrylohydrazide] | 82% | 13900 ng·h/mL | 5.2 h | 1600 ng/mL | 0.95 | 3.8 µM | < 4.30 | < 4.30 | 6.2 µM | 1.8 µM | 6.67 | 6.53 | 6.90 | 0.21 µM | 5.76 | 5.95 | 5.63 | Cmax ([1]; 3 mg/kg, 3 mpk, first number of Plasma/brain pair, read-out: Cmax/(ng/mL) Plasma): 1250 ng/mL; Cmax ([1]; 3 mg/kg, 3 mpk, second number of Plasma/brain pair, read-out: Cmax/(ng/mL) brain): 1190 ng/mL; expression of CRM1 in tumors (IHC) (CRM1): significantly decreased; pIC50 (U251; U251, 72 hours, Table 1, read-out: Growth inhibition (IC50)): 5.42; pIC50 (T98G; [4]): 5.20; pIC50 (LN-229; [4]): 5.75; cell viability in REV-GFP assay (XPO1; 1 h, all concentrations tested): no decrease in cell viability; EC90 (XPO1; U2OS, concentration stated as EC90 in washout study, read-out: EC90 (REV-EGFP translocation)): 400 nM; pEC50 (XPO1; concentration stated as EC50 in washout study, read-out: EC50 (REV-EGFP translocation)): 6.92; pIC50 (U87MG; U87MG, Table 12, read-out: Relative IC50): 6.70; Max % Inhibition (U87MG; U87MG, Table 12): 46.3%; Bottom (U87MG; U87MG, curve fit, Table 12): −4.2; Hill Slope (U87MG; U87MG, curve fit, Table 12): 3.2; Top (U87MG; U87MG, curve fit, Table 12): 40.2 |
| O=C(/C=C\n1cnc(-c2cc(C(F)(F)F)cc(S(F)(F)(F)(F)F)c2)n1)NNc1cnccn1 [Compound I, (Z)-3-(3-(3-(pentafluorosulfanyl)-5-(trifluoromethyl)phenyl)-1H-1,2,4-triazol-1-yl)-N′-(pyrazin-2-yl)acrylohydrazide] | 98% | 10000 ng·h/mL | 4.7 h | 2550 ng/mL | 0.71 | 1.2 µM | 4.59 | 4.59 | 1.7 µM | 0.6 µM | 7.92 | 7.79 | 8.11 | 0.012 µM | 6.23 | 6.42 | 6.10 | Cmax ([1]; rat, 10 mg/kg, 10 mpk, first number of Plasma/brain pair, read-out: Cmax/(ng/mL) Plasma): 1890 ng/mL; Cmax ([1]; rat, 10 mg/kg, 10 mpk, second number of Plasma/brain pair, read-out: Cmax/(ng/mL) brain): 1300 ng/mL; pIC50 (3T3-L1; 3T3-L1, Table 6, read-out: 3T3-L1 IC50): < 4.30; pIC50 (3T3-L1; 3T3-L1 normal cell line, 72 hours, Table 1, read-out: Growth inhibition (IC50)): < 4.30; HCN2 Max % inh (HCN2; Table 8): 22%; pIC50 (HCN2; Table 8, read-out: HCN2 IC50): < 4.30; pIC50 (U87MG; Table 6, read-out: U87MG IC50): 6.65 |
